Measured values from patent US6465429B1, “Antimicrobial cationic peptides” (priority 1995, dated 2002).
“And” between values parts separate entries of the source, which are not always exact repeats. Identical values can stand only once. “Also recorded” adds a separate entry of the source.

Columns and labels:
RAW cells = assay: RAW cell viability by Trypan blue exclusion; type: cell-based
Red Blood Cells = assay: Red Blood Cell lysis; type: cell-based
[1] = test system: LPS-induced TNF in RAW 264.7 macrophage cells; assay: Inhibition of LPS-mediated TNF induction in macrophages (L929 cytotoxic assay); type: cell-based
Procedure: RAW 264.7 macrophage cells were grown by seeding 10^6 cells into a 162 cm^2 cell culture flask and incubated at 37° C., 5%CO2 for 1 week. RAW cell media [(Dulbecco's Modified Eagle Medium with Hepes buffer 450 ml; 2.4 mML-glutamine 3 ml (400 mM); Pen/Strep 3 ml (10^4U/ml of Pen, 1 mg/ml strep); and 10% heat inactivated fetal bovine serum (FBS) 50 ml)] was then completely removed from flasks. 10 mls of cell dissociation solution (Sigma) was added to each flask and inc; bated at 37° C. for 10 minutes. Cells were removed from flasks, diluted in RAW cell media and centrifuged for 6 minutes. The cell pellet was resuspended in 5 ml of media/flask used, 100 μl cell suspension was removed and added to 400 ∥l of trypan blue and cells were counted using a hemocytometer. The cell suspension was diluted to 1×10^6 cells/ml and 1 ml of suspension was added per well of a 24 well plate. The 24 well plates were incubated at 37° C., 5% CO2 overnight for use in the assay.
After an overnight incubation, the media was aspirated from all the wells. 100 μl of Lipopolysaccharide (LPS) was added at 100 ng/100 μl. CEME, CEMA or MBI 29 was added at the desired concentration/100 μl to specified wells. […] The plates were then incubated for six hours at 37° C., 5% CO2. The supernatant was then removed from the wells and stored overnight at 4° C. For those wells in which whole bacteria were added directly to the wells, the supernatant was centrifuged in 0.2 μm filter eppendorf tubes for 5 minutes.
The supernatants were then used in cell cytotoxic L929 assay. The samples were transferred to 96 well plates. […]
TNF-sensitive L929 mouse fibroblast cells were grown by seeding 10^6 cells into a 162 cm^2 cell culture flask and left to grow for 1 week. […] The pellet was resuspended in 5 mls of fresh L929 media/flask and counted (same as RAW cells). […]
The plates were read at 570 nm in a ELISA plate reader with 690 nm reference filter. […]
In order to determine how rapidly the cationic peptides reduced LPS-induced TNF production, E. coli 0111:B4 was added at time 0 to RAW macrophages. […] Levels of TNF were measured after 6 hours. […]

P. aeruginosa = assay: microbe, parasite or virus in culture; settings: agent alone
Procedure: FICs are performed by checkerboard titrations of peptides in one dimension of a microtiter plate, and of antibiotics in the other dimension, for example. The FIC is calculated by looking at the impact of one antibiotic on the MIC of the other and vice versa. […] Preferably, an FIC of less than 0.5 is obtained for synergism. As used herein, FIC can be determined as follows: [formula]
Synergism is identified as an FIC of about ≦0.5.

E. coli ML 35 = assay: Inner membrane permeabilization (β-galactosidase, ONPG); type: cell-based; settings: 4 ug peptide; +5 mM Mg
Procedure: Inner membrane permeability was determined by measurement in E. coli ML 35 of β-galactosidase activity using ONPG as a substrate. Normally ONPG cannot pass across the cytoplasmic membrane to permit hydrolysis by the cytoplasmic enzyme β-galactosidase. However, cationic peptides, by permeabilizing the inner membrane, unmasks this enzyme leading to color development as ONP is released. […] Addition of citrate increased the lag time before the peptides were able to permeabilize the membranes. When the experiments were executed in cation adjusted media (CAMHB), the lag time was increased up to 30 minutes.

Candida albicans = assay: MIC, broth dilution in LB-S; type: cell-based; design: unit not given beside the values; settings: Candida albicans (CAN105); Table 1a
Procedure: The biological activity of the peptides can be determined by standard methods known to those of skill in the art, such as “minimal inhibitory concentration (MIC)” assay described in the present examples, whereby the lowest concentration at which no change in OD is observed for a given period of time is recorded as MIC. Alternatively, “fractional inhibitory concentration (FIC)” is also useful for determination of synergy between the peptides of the invention, or the peptides in combination with known antibiotics. FICs are performed by checkerboard titrations of peptides in one dimension of a microtiter plate, and of antibiotics in the other dimension, for example. The FIC is calculated by looking at the impact of one antibiotic on the MIC of the other and vice versa. […] Preferably, an FIC of less than 0.5 is obtained for synergism. As used herein, FIC can be determined as follows: [formula]
Briefly, cells were grown overnight at 37° C. in LB-S (Luria broth without any salt supplement) and diluted one in 10,000 in the same medium to give concentrations of about 10^4 to 10^5 CFU/ml. The broth dilutions were set up in a 96 well microtiter plate by putting 200 μl of LB-S containing the initial concentration of antibiotic or compound in column 1 and 100 μl of the same medium in columns 2-12. […] The next day the plates were scored for growth in the wells, and the MIC determined.

Row | Compound | amount causing no apparent decrease in RAW cell viability (RAW cells) | RBC Lysis (Red Blood Cells) [µg/mL] | TNF induction in washed RAW cells pre-incubated with peptide ([1]; 20 μg MBI 29 for 60 minutes, washed 3 times, then 10 ng or 100 ng LPS) | inhibition of TNF induction by LPS ([1]; E. coli 0111:B4 LPS, peptide added at 0, 30 and 60 minutes, TNF after 6 hours) | reduction of LPS-induced TNF when added after LPS ([1]; added 60 minutes after the addition of LPS) | MIC (P. aeruginosa; P. aeruginosa isolate 27, strain 14644) | MIC (P. aeruginosa; P. aeruginosa isolate 28, strain 15036) [µg/mL] | MIC (P. aeruginosa; Table 33, P. aeruginosa isolate 23, strain ATCC 27853) [μg · mL^1] | MIC (P. aeruginosa; Table 33, P. aeruginosa isolate 24, strain 34) [μg · mL^1] | MIC (P. aeruginosa; Table 33, P. aeruginosa isolate 25, strain 923-1) [μg · mL^1] | MIC (P. aeruginosa; Table 33, P. aeruginosa isolate 26, strain 3101) [μg · mL^1] | MIC (P. aeruginosa; Table 33, P. aeruginosa isolate 27, strain 14644) [μg · mL^1] | MIC (P. aeruginosa; Table 33, P. aeruginosa isolate 28, strain 15036) [μg · mL^1] | MIC (P. aeruginosa; Table 33, P. aeruginosa isolate 29, strain 15545) [μg · mL^1] | MIC (P. aeruginosa; Table 33, P. aeruginosa isolate 30, strain B3999-1) [μg · mL^1] | MIC (P. aeruginosa; Table 33, P. aeruginosa isolate 31, strain U7688-1) [μg · mL^1] | MIC (P. aeruginosa; Table 33, P. aeruginosa isolate 32, strain W2897-1) [μg · mL^1] | MIC (P. aeruginosa; Table 33, P. aeruginosa isolate 33, strain W5483-2) [μg · mL^1] | effect of 5 mM Mg++ on inner membrane permeabilization (E. coli ML 35) | MIC (Candida albicans)
1 | CC[C@H](C)[C@H](NC(=O)[C@H](CC(C)C)NC(=O)[C@H](C)NC(=O)[C@@H]1CCCN1C(=O)[C@H](CC(C)C)NC(=O)CNC(=O)[C@@H](NC(=O)[C@@H](NC(=O)[C@H](CC(C)C)NC(=O)[C@@H](NC(=O)[C@H](CCCCN)NC(=O)[C@H](CCCCN)NC(=O)[C@@H](NC(=O)[C@H](C)NC(=O)[C@@H](NC(=O)[C@@H](NC(=O)[C@H](CC(C)C)NC(=O)[C@H](CCCCN)NC(=O)[C@H](CCCCN)NC(=O)[C@@H](NC(=O)[C@H](Cc1ccccc1)NC(=O)[C@H](CO)NC(=O)[C@H](CCCCN)NC(=O)[C@H](Cc1c[nH]c2ccccc12)NC(=O)[C@@H](N)CCCCN)[C@@H](C)CC)[C@@H](C)O)[C@@H](C)O)C(C)C)C(C)C)[C@@H](C)O)[C@@H](C)O)C(=O)N[C@@H](CO)C(=O)O [MBI 29] | Up to 50 μg | >55 | 14,000-20,000 Units of TNF per ml | inhibited TNF induction by LPS in a similar manner to polymyxin B | effective at reducing the ability of LPS to induce TNF; also recorded: distinct and reproducible advantage over polymyxin B | 128 µg/mL and 123 µg/mL | 128 | 32 | 16 | 32 | 32 | 32 | 32 | 32 | 32 | 32 | 32 | 32 | the least affected by any of the conditions | 
2 | KWKLFKKIGIGAVLKVLTTGLPALIS [CEME] |  |  |  |  |  |  |  |  |  |  |  |  |  |  |  |  |  |  |  | ≧64
